Source: patent US11459312B2, “Sulphur substituted 3-oxo-2,3-dihydropyridazine-4-carboxamides” (Bayer Aktiengesellschaft, priority 2017, dated 2022)

target: T1, AHR (Homo sapiens, UniProt P35869); assay: In vitro assay 1: AHR-luc transactivation assay, antagonism in human cell line (U87 glioblastoma cells, kynurenic acid prestimulated); format: cell-based; set-up: U87 glioblastoma cells (ATCC) endogenously expressing AHR; host or cells: U87 glioblastoma cells, stably transfected with DRE-firefly luciferase and renilla reporter constructs only; conditions: firefly luciferase DRE reporter, 150 μM kynurenic acid, 20 hours, read-out: Assay 1: AHR-luc Hum Antagonism IC50
T1 sequence (P35869 11-848): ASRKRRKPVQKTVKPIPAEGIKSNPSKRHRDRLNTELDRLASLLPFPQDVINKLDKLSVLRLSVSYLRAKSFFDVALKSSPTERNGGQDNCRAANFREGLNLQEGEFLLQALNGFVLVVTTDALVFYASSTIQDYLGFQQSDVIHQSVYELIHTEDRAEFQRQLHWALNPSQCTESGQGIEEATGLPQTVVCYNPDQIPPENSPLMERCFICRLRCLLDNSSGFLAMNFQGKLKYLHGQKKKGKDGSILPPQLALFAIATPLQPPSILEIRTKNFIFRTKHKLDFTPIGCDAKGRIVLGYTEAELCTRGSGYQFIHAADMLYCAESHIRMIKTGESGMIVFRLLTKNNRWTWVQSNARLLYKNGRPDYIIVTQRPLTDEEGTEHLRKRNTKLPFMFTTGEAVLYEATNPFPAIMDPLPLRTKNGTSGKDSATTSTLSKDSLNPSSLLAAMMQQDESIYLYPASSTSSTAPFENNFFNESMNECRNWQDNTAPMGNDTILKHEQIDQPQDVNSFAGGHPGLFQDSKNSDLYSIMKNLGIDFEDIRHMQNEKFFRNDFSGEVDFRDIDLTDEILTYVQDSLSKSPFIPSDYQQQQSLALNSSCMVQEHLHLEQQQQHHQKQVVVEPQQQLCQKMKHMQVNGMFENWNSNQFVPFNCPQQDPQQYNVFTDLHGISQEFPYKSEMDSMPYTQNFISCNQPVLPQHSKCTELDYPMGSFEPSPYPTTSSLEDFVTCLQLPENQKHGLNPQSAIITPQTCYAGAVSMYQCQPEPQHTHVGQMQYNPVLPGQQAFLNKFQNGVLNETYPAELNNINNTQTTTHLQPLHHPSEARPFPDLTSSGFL
Protocol: Transactivation Assay in Human Cell Line (In Vitro Assays 1 and 2)
Transactivation assays were carried out in U87 glioblastoma cells (ATCC) endogenously expressing AHR. In addition the cells were stably transfected with an AHR inducible firefly luciferase reporter gene construct that carried AHR-binding sites (DRE) in its promoter and a renilla reporter gene construct with constitutively active promoter. Kynurenic acid is an endogenous AHR activating ligand and was used to prestimulate test cells prior to testing the antagonistic properties of compounds.
In Vitro Assay 1: Antagonism in Human Cell Line
Cells in medium (tryptophan free RPMI, 1% FCS, 2 mM Glutamine) supplemented with 150 μM kynurenic acid were grown for 20 hours in absence (negative control) or presence of increasing concentrations of test compounds (typical dilutions: […], 0.25 nmol/L, 0.89 nmol/L; 3.1 nmol/L, 11 nmol/L, 38 nmol/L, 130 nmol/L, 470 nmol/L, 1.6 μmol/L, 5.7 μmol/L and 20 μmol/L in duplicates). As positive inhibition control cells supplemented with 150 μM kynurenic acid were incubated in presence of 5 μM Staurosporin. Normalization was done by positive and negative controls.
Firefly luciferase and Renilla activity was determined by the DualGlo Luciferase Assay System (Promega, #2920). Renilla activity was used to assess toxic effects of compounds.

Row | Structure (SMILES) | IC50 [nM]
1 | O=C(N[C@@H]1C[S+]([O-])C[C@@H]1O)c1cc(-c2ccc(Cl)cc2)nn(-c2cccc(F)c2)c1=O (single isomer, unassigned) [Example 29, 6-(4-chlorophenyl)-2-(3-fluorophenyl)-N-[(cis)-4-hydroxy-1-oxidotetrahydro-thiophen-3-yl]-3-oxo-2,3-dihydropyridazine-4-carboxamide] | 301
2 | O=C(N[C@@H]1C[S+]([O-])C[C@@H]1O)c1cc(-c2ccc(C(F)(F)F)cc2)nn(-c2cccnc2)c1=O (single isomer, unassigned) [Example 34, N-[(cis)-4-hydroxy-1-oxidotetrahydro-thiophen-3-yl]-3-oxo-2-(pyridin-3-yl)-6-[4-(trifluoromethyl)phenyl]-2,3-dihydropyridazine-4-carboxamide] | 78.8
3 | O=C(N[C@@H]1C[S+]([O-])C[C@@H]1O)c1cc(-c2ccc(C(F)(F)F)cc2)nn(-c2cccnc2)c1=O (single isomer, unassigned) [Example 35, N-[(cis)-4-hydroxy-1-oxidotetrahydro-thiophen-3-yl]-3-oxo-2-(pyridin-3-yl)-6-[4-(trifluoromethyl)phenyl]-2,3-dihydropyridazine-4-carboxamide] | 272
4 | O=C(N[C@@H]1C[S+]([O-])C[C@@H]1O)c1cc(-c2ccc(C(F)(F)F)cc2)nn(-c2cccnc2)c1=O (single isomer, unassigned) [Example 36, N-[(cis)-4-hydroxy-1-oxidotetrahydro-thiophen-3-yl]-3-oxo-2-(pyridin-3-yl)-6-[4-(trifluoromethyl)phenyl]-2,3-dihydropyridazine-4-carboxamide] | 295
5 | O=C(N[C@@H]1C[S+]([O-])C[C@@H]1O)c1cc(-c2ccc(C(F)(F)F)cc2)nn(-c2cccnc2)c1=O (single isomer, unassigned) [Example 37, N-[(cis)-4-hydroxy-1-oxidotetrahydro-thiophen-3-yl]-3-oxo-2-(pyridin-3-yl)-6-[4-(trifluoromethyl)phenyl]-2,3-dihydropyridazine-4-carboxamide] | 150
6 | C[C@@H](CS(C)(=N)=O)NC(=O)c1cc(-c2ccc(C(F)(F)F)cc2)nn(-c2cnn(C)c2)c1=O (single isomer, unassigned) [Example 39] | 133
7 | C[C@@H](CS(C)(=N)=O)NC(=O)c1cc(-c2ccc(C(F)(F)F)cc2)nn(-c2cnn(C)c2)c1=O (single isomer, unassigned) [Example 40] | 80.3
8 | N=S1(=O)C[C@H](O)[C@H](NC(=O)c2cc(-c3ccc(Cl)cc3)nn(-c3cccc(F)c3)c2=O)C1 (single isomer, unassigned) [Example 43, 6-(4-chlorophenyl)-2-(3-fluorophenyl)-N-[(cis)-4-hydroxy-1-imino-1-oxidotetrahydro-1H-1lambda4-thiophen-3-yl]-3-oxo-2,3-dihydropyridazine-4-carboxamide] | 43.8
9 | N=S1(=O)C[C@H](O)[C@H](NC(=O)c2cc(-c3ccc(Cl)cc3)nn(-c3cccc(F)c3)c2=O)C1 (single isomer, unassigned) [Example 46, 6-(4-chlorophenyl)-2-(3-fluorophenyl)-N-[(cis)-4-hydroxy-1-imino-1-oxidotetrahydro-1H-1lambda4-thiophen-3-yl]-3-oxo-2,3-dihydropyridazine-4-carboxamide] | 103
10 | CS(=N)(=O)CCNC(=O)c1cc(-c2ccc(Cl)cc2)nn(-c2cccc(F)c2)c1=O (single isomer, unassigned) [Example 53, 6-(4-Chlorophenyl)-2-(3-fluorophenyl)-N-[2-(S-methylsulfonimidoyl)ethyl]-3-oxo-2,3-dihydropyridazine-4-carboxamide] | 843
11 | CS(=N)(=O)CCNC(=O)c1cc(-c2ccc(Cl)cc2)nn(-c2cccc(F)c2)c1=O (single isomer, unassigned) [Example 54, 6-(4-Chlorophenyl)-2-(3-fluorophenyl)-N-[2-(S-methylsulfonimidoyl)ethyl]-3-oxo-2,3-dihydropyridazine-4-carboxamide] | 581
12 | O=C(N[C@H]1CS(=O)(=O)C[C@H]1O)c1cc(-c2ccc(Cl)cc2)nn(-c2cccc(F)c2)c1=O (single isomer, unassigned) [Example 56, 6-(4-Chlorophenyl)-2-(3-fluorophenyl)-N-[(cis)-4-hydroxy-1,1-dioxidotetrahydrothiophen-3-yl]-3-oxo-2,3-dihydropyridazine-4-carboxamide] | 65.3
13 | O=C(N[C@@H]1C[S+]([O-])C[C@@H]1O)c1cc(-c2ccc(Cl)cc2)nn(-c2cccc(F)c2)c1=O (single isomer, unassigned; (+)) [Example 27, (+)-6-(4-chlorophenyl)-2-(3-fluorophenyl)-N-[(cis)-4-hydroxy-1-oxidotetrahydro-thiophen-3-yl]-3-oxo-2,3-dihydropyridazine-4-carboxamide] | 93.5
14 | O=C(N[C@@H]1C[S+]([O-])C[C@@H]1O)c1cc(-c2ccc(Cl)cc2)nn(-c2cccc(F)c2)c1=O (single isomer, unassigned; (+)) [Example 31, (+)-6-(4-chlorophenyl)-2-(3-fluorophenyl)-N-[(cis)-4-hydroxy-1-oxidotetrahydro-thiophen-3-yl]-3-oxo-2,3-dihydropyridazine-4-carboxamide] | 145
15 | O=C(N[C@@H]1C[S+]([O-])C[C@@H]1O)c1cc(-c2ccc(Cl)cc2)nn(-c2cccc(F)c2)c1=O (single isomer, unassigned; (-)) [Example 28, (−)-6-(4-chlorophenyl)-2-(3-fluorophenyl)-N-[(cis)-4-hydroxy-1-oxidotetrahydro-thiophen-3-yl]-3-oxo-2,3-dihydropyridazine-4-carboxamide] | 13.4
16 | O=C(N[C@@H]1C[S+]([O-])C[C@@H]1O)c1cc(-c2ccc(Cl)cc2)nn(-c2cccc(F)c2)c1=O (single isomer, unassigned; (-)) [Example 30, (−)-6-(4-chlorophenyl)-2-(3-fluorophenyl)-N-[(cis)-4-hydroxy-1-oxidotetrahydro-thiophen-3-yl]-3-oxo-2,3-dihydropyridazine-4-carboxamide] | 210
17 | O=C(N[C@@H]1CCS(=O)(=O)C1)c1cc(-c2ccc(Cl)cc2)nn(-c2cccc(F)c2)c1=O (stereo in doubt) [Example 58, 6-(4-Chlorophenyl)-N-(1,1-dioxidotetrahydrothiophen-3-yl)-2-(3-fluorophenyl)-3-oxo-2,3-dihydropyridazine-4-carboxamide] | 145
18 | CSC[C@H](C)NC(=O)c1cc(-c2ccc(Cl)cc2)nn(-c2cccc(F)c2)c1=O [Example 1, 6-(4-Chlorophenyl)-2-(3-fluorophenyl)-N-[(2S)-1-(methylsulfanyl)propan-2-yl]-3-oxo-2,3-dihydropyridazine-4-carboxamide] | 52.6
19 | C[C@@H](CS(C)(=O)=O)NC(=O)c1cc(-c2ccc(Cl)cc2)nn(-c2cccc(F)c2)c1=O [Example 2, 6-(4-Chlorophenyl)-2-(3-fluorophenyl)-N-[(2S)-1-(methylsulfonyl)propan-2-yl]-3-oxo-2,3-dihydropyridazine-4-carboxamide] | 147
20 | CSC[C@H](C)NC(=O)c1cc(-c2ccc(C(F)(F)F)cc2)nn(-c2cnn(C)c2)c1=O [Example 9, 2-(1-Methyl-1H-pyrazol-4-yl)-N-[(2S)-1-(methylsulfanyl)propan-2-yl]-3-oxo-6-[4-(trifluoromethyl)phenyl]-2,3-dihydropyridazine-4-carboxamide] | 6.99
